Holding throughout (format): cell-based
Data set [1] in a line: Cytotoxicity in PHH natural infection assay (Cell Counting Kit-8). The conditions noted are these: HBV-infected primary human hepatocytes, CCK8. Summed up: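 HBV-infected primary human hepatocytes (200 GE/cell, 4% PEG8000, 24 h), then sandwich-cultured 72 h. Cells dosed at varying concentrations for two 72-hour cycles, with medium refreshed. Cytotoxicity read by CCK-8 at end of treatment.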

Data set [2] deals with HBsAg. Briefly: PHH HBV natural infection assay, HBsAg (alphalisa). The conditions noted are these: Hepatitis B virus, Hepatocyte, read-out: HBsAg IC50. Summed up:
(§1)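 Primary human hepatocytes infected with HBV at 200 GE/cell plus 4% PEG8000 for 24 h, then sandwich-cultured 72 h in medium with 1% DMSO. Compound applied twice at 72-h intervals; supernatant HBsAg and HBeAg quantified by AlphaLISA.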
For orientation: Alpha assays give light when donor and acceptor beads are brought close together.

Data set [3] concerns HBeAg. The experiment in a line: PHH HBV natural infection assay, HBeAg (alphalisa). As to conditions: Hepatitis B virus, Hepatocyte, read-out: HBeAg IC50. The method in brief: as §1

This is an account of results in patent US20230416238A1, “N-[(1,3-BENZOXAZOL-2-YL)-HETEROCYCLE]AMIDE DERIVATIVES FOR THE TREATMENT AND PROPHYLAXIS OF HEPATITIS B VIRUS INFECTION” (Hoffmann-La Roche Inc., priority 2020, published 2023).

Molecules are shown by their SMILES.

By CC50 is commonly meant the concentration giving 50% cytotoxicity. The low end stands for greater toxicity to the cells, the high end for lower toxicity to the cells. Usually IC50 stands for the concentration needed to halve the response being measured. `C[S+]([O-])c1ccc(C(=O)NC2CCC3(CC2)CCN(c2nc4cc(Cl)ccc4o2)CC3)o1` (stereo not drawn) [Example 116, N-[3-(5-chloro-1,3-benzoxazol-2-yl)-3-azaspiro[5.5]undecan-9-yl]-5-methylsulfinyl-furan-2-carboxamide] had a CC50 at 144 h in data set [1] of 68500 nM. In addition, the IC50 amounted to 2860 nM in data set [2] and 2340 nM in data set [3].

`CCS(=O)(=O)c1ccc(C(=O)NC2CCC3(CC2)CCN(c2nc4cc(Cl)ccc4o2)CC3)o1` [Example 117, N-[3-(5-chloro-1,3-benzoxazol-2-yl)-3-azaspiro[5.5]undecan-9-yl]-5-ethylsulfonyl-furan-2-carboxamide]: the 50% cytotoxic concentration (CC50) at 144 h in data set [1] was more than 100000 nM. Also, the IC50 in data set [2] was found to be 2370 nM; in data set [3] it was 2910 nM.

Molecule `O=C(NC1CCC2(CC1)CCN(c1nc3cc(Cl)ccc3o1)CC2)c1ccnc(S(=O)(=O)C2CC2)c1` [Example 118, N-[3-(5-chloro-1,3-benzoxazol-2-yl)-3-azaspiro[5.5]undecan-9-yl]-2-cyclopropylsulfonyl-pyridine-4-carboxamide] had a 50% cytotoxic concentration (CC50) at 144 h in data set [1] of more than 10000 nM. Also, the IC50 in data set [2] was 2370 nM; in data set [3] it was 2360 nM.

For `N=S(=O)(CC1CC1)c1ccc(C(=O)NC2CCC3(CC2)CCN(c2nc4cc(Cl)ccc4o2)CC3)o1` (stereo not drawn) [Example 119, N-[3-(5-chloro-1,3-benzoxazol-2-yl)-3-azaspiro[5.5]undecan-9-yl]-5-(cyclopropylmethylsulfonimidoyl)furan-2-carboxamide], the CC50 at 144 h in data set [1] worked out at 85800 nM. Further, the values for the half-inhibitory concentration (IC50) in data set [2] and in data set [3] were 1920 nM and 1360 nM, respectively.

The molecule `N=S(=O)(c1ccc(C(=O)NC2CCC3(CC2)CCN(c2nc4cc(Cl)ccc4o2)CC3)o1)C1CC1` (stereo not drawn) [Example 120, N-[3-(5-chloro-1,3-benzoxazol-2-yl)-3-azaspiro[5.5]undecan-9-yl]-5-(cyclopropylsulfonimidoyl)furan-2-carboxamide] came in with a CC50 at 144 h in data set [1] of 66600 nM. Besides, the half-inhibitory concentration (IC50) in data set [2] is 1550 nM; in data set [3] it was 1430 nM.

In data set [1], `O=C(NC1CCC2(CC1)CCN(c1nc3cc(Cl)ccc3o1)CC2)c1ccc(S(=O)(=O)CC2CC2)o1` [Example 121, N-[3-(5-chloro-1,3-benzoxazol-2-yl)-3-azaspiro[5.5]undecan-9-yl]-5-(cyclopropylmethylsulfonyl)furan-2-carboxamide] showed a cytotoxic concentration (CC50) at 144 h of more than 100000 nM. The IC50 came to 1540 nM in data set [2] and 1160 nM in data set [3].

For `O=C(NC1CCC2(CC1)CCN(c1nc3cc(Cl)ccc3o1)CC2)c1ccc(S(=O)(=O)C2CC2)o1` [Example 122, N-[3-(5-chloro-1,3-benzoxazol-2-yl)-3-azaspiro[5.5]undecan-9-yl]-5-cyclopropylsulfonyl-furan-2-carboxamide], the CC50 at 144 h in data set [1] is more than 100000 nM. For the same molecule, the IC50 in data set [2] was determined as 384 nM; in data set [3] it was 473 nM.

Consider `O=C(NC1CC2CN(c3nc4cc(Cl)ccc4o3)CC2C1)c1ccc(C(F)(F)F)o1` (stereo not drawn) [Example 123, N-[2-(5-chloro-1,3-benzoxazol-2-yl)-3,3a,4,5,6,6a-hexahydro-1H-cyclopenta[c]pyrrol-5-yl]-5-(trifluoromethyl)furan-2-carboxamide], for which the 50% cytotoxic concentration (CC50) at 144 h in data set [1] was more than 100000 nM. Besides, the IC50 is 4810 nM in data set [2] and 5470 nM in data set [3].

In data set [1], `O=C(NC1CC2CN(c3nc4cc(Cl)ccc4o3)CC2C1)C1CCS(=O)(=O)C1` (stereo not drawn) [Example 124, N-[2-(5-chloro-1,3-benzoxazol-2-yl)-3,3a,4,5,6,6a-hexahydro-1H-cyclopenta[c]pyrrol-5-yl]-1,1-dioxo-thiolane-3-carboxamide] came in with a half-maximal cytotoxic concentration (CC50) at 144 h of more than 100000 nM. Also, the values for the 50% inhibitory concentration (IC50) in data set [2] and in data set [3] were 6590 nM and 13000 nM, respectively.

In the case of `O=C(NC1C2CN(c3nc4cc(Cl)ccc4o3)CC21)c1ccc(C(F)(F)F)o1` (stereo not drawn) [Example 125, N-[3-(5-chloro-1,3-benzoxazol-2-yl)-3-azabicyclo[3.1.0]hexan-6-yl]-5-(trifluoromethyl)furan-2-carboxamide], in data set [1], the CC50 at 144 h was more than 100000 nM. For the same molecule, the figures for the IC50 in data set [2] and in data set [3] were 4740 nM and 5410 nM, respectively.
